Reference: patent US6706839B1, “Chemical partitioning agents and methods of using same” (University of Pittsburgh, priority 1999, dated 2004)

Test: Solubility of stilbene precipiton isomers in organic solvents (qualitative observations)
Format: physicochemical
Conditions: for solubility in THF: reaction solvent of the Z to E isomerization
Description: When a solution of (Z)-stilbene (51Z or 52Z) in THF was heated to reflux at 80-90° C. in the presence of Ph2S2 (0.2 equiv) for several hours, the Z to E isomerization occurred smoothly. The reaction was followed by ^1H NMR (either vinylic protons or NMe2 (51Z), OMe (52Z)). As the reaction proceeded, solid precipitate came out of the solution. […] The E-isomer was obtained pure in a 44% (51E) and 79% (52E) yield, respectively without any contamination of either Z-isomer or Ph2S2. […] In high-boiling solvents such as toluene and p-dioxane, the isomerization was faster than in THF and the reaction was completed in less than 3 h (Table 32). A second catalytic method for isomerization/precipitation employs iodine and a radical initiator, for example dibenzoylperoxide. Irradiation of the cis-alkenes in the presence of 1-50 mol % iodine and 0.1-25 mol % dibenzoylperoxide affords clean isomerization of the cis to trans alkene.
(2-Naphthalenylmethyl)triphenylphosphonium bromide ((a) Tinnemans, A. H. A.; Laarhoven, W. H. J. Chem. Soc. Perkin. Trans. 2, 1976, 1104-1111. (b) Zelikovich, L.; Hoffman, R. E.; Ayalon, A.; Rabinovitz, M. J. Chem. Soc. Perkin. Trans. 2, 1992, 1785-1792) was treated with NaH in DMF to generate a corresponding ylide. A solution of 4-methoxy-1-naphthaldehyde in DMF was added and stirred at 35-50° C. for 2 h at to give 1,2-naphthylstilbene 53 in 51% yield (53Z:53E=1:1.2). 6-Methoxy-2-naphthaldehyde ((a) Harvey, R. G.; Cortez, C.; Sawyer, T. W.; DiGiovanni, J.; J. Med. Chem. 1988, 31, 1308-1312. (b) Harvey, R. G.; Cortez, C. Tetrahedron, 1997, 53, 7101-7118) was prepared by formylation (Beringer, F. M.; Nathan, R. A. J. Org. Chem. 1969, 34, 685-689) of 6-methoxy-2-bromonaphthalene in 53% yield. When (2-naphthalenylmethyl)-triphenylphosphonium bromide was reacted with 6-methoxy-2-naphthaldehyde in a similar manner as 1,2-naphthylstilbene, (Z)-2,2-naphthylstilbene 54Z was prepared in 39% isolated yield. […]

Row | Structure (SMILES) | solubility in Et2O, compared with 52E (Et2O, trituration solvent, relative to 52E) | solubility in THF
1 | CN(C)c1ccc(/C=C/c2ccc(Br)cc2)cc1 [51E] | bigger solubility | partially soluble
2 | COc1ccc(/C=C/c2ccc(-c3ccccc3)cc2)cc1 [52E] | – | partially soluble
